The record followed here is patent US20070128217A1 (priority 2003, published 2007).

Experiment [1] concerns antibodies in sera from SARS patients (sera 1a, 1b, 2, 6, 37, 62, London, SARS-yellow, SARS-green). Type of experiment: binding, human. More on the design: Binding of serum 6 to linear peptides of protein X1 of SARS-CoV Urbani / Binding of serum 37 to linear peptides of protein X1 of SARS-CoV Urbani / Binding of serum 6 to looped/cyclic peptide (PEPSCAN-ELISA) / Binding of serum 37 to looped/cyclic peptide (PEPSCAN-ELISA) / Binding of serum 37 to looped/cyclic peptides of protein X1 of SARS-CoV Urbani / Binding of serum 6 to linear peptides of protein X2 / Binding of serum 37 to linear peptides of protein X2 / Binding of serum 37 to looped/cyclic peptides of protein X2 of SARS-CoV Urbani / Binding of serum 6 to linear peptides of protein M of SARS-CoV Urbani / Binding of serum 37 to linear peptides of protein M of SARS-CoV Urbani / Binding of serum 6 to looped/cyclic peptides of protein M of SARS-CoV Urbani / Binding of serum 37 to looped/cyclic peptides of protein M of SARS-CoV Urbani / Binding of serum 6 to linear peptides of protein X3 of SARS-CoV Urbani / Binding of serum 37 to linear peptides of protein X3 of SARS-CoV Urbani / Binding of serum 37 to looped/cyclic peptides of protein X3 of SARS-CoV Urbani / Binding of serum 6 to linear peptides of protein X4 of SARS-CoV Urbani / Binding of serum 37 to linear peptides of protein X4 of SARS-CoV Urbani / Binding of serum 37 to looped/cyclic peptides of protein X4 of SARS-CoV Urbani / Binding of serum 6 to linear peptides of protein X5 of SARS-CoV Urbani / Binding of serum 37 to linear peptides of protein X5 of SARS-CoV Urbani / Binding of serum 37 to looped/cyclic peptides of protein X5 of SARS-CoV Urbani / Binding of serum 6 to linear peptides of protein N of SARS-CoV Urbani / Binding of serum 37 to linear peptides of protein N of SARS-CoV Urbani / Binding of serum 6 to linear peptide (PEPSCAN-ELISA) / Binding of serum 1a to looped/cyclic peptides of protein N of SARS-CoV Urbani / Binding of serum 1b to looped/cyclic peptides of protein N of SARS-CoV Urbani / Binding of serum 2 to looped/cyclic peptides of protein N of SARS-CoV Urbani / Binding of serum 6 to looped/cyclic peptides of protein N of SARS-CoV Urbani / Binding of serum 37 to looped/cyclic peptides of protein N of SARS-CoV Urbani / Binding of serum 62 to looped/cyclic peptides of protein N of SARS-CoV Urbani / Binding of serum London to looped/cyclic peptides of protein N of SARS-CoV Urbani / Binding of serum SARS-green to looped/cyclic peptides of protein N of SARS-CoV Urbani: unit not given here.

For experiment [2], the system named is rabbit serum obtained by immunizing a rabbit with the SARS-CoV strain Frankfurt 1. The format is binding. More on the design: Binding of a rabbit serum to linear peptides / Binding of a rabbit serum to looped peptides / Rabbit serum linear peptides / Rabbit serum looped peptides / Binding of a rabbit serum to linear peptides of protein N of SARS-CoV Urbani (Rabbit serum linear peptides) / Binding of a rabbit serum to looped/cyclic peptides of protein N of SARS-CoV Urbani (Rabbit serum looped peptides): unit not given here.

Experiment [3] concerns control sera (pooled serum of ten healthy LUMC hospital workers; commercial negative donor pooled serum from the Dutch bloodbank). Type of experiment: binding, human. More on the design: Binding of Control serum LUMC to linear peptides / Binding of Control serum Blood-bank to linear peptides / Binding of Control serum LUMC to looped peptides / Binding of Control Serum Blood-Bank to Looped peptides / Binding of Control serum LUMC to linear peptides of the protein M of SARS-CoV Urbani / Binding of Control serum Blood-bank to linear peptides of the protein M of SARS-CoV Urbani / Binding of Control serum LUMC to looped peptides of the protein M of SARS-CoV Urbani / Binding of Control Serum Blood-Bank to Looped peptides of the protein M of SARS-CoV Urbani: unit not given here.

Take GALIARCWYLHEGHQ: in experiment [1], the “Binding of serum 1a to linear peptides of protein X5 of SARS-CoV Urbani” value was 0.7, the “Binding of serum 1a to looped/cyclic peptides of protein X5 of SARS-CoV Urbani” value was found to be 0.4, the “Binding of serum 1b to linear peptides of protein X5 of SARS-CoV Urbani” value is 0.6 and the “Binding of serum 1b to looped/cyclic peptides of protein X5 of SARS-CoV Urbani” value is 0.4. Also, in experiment [1], the “Binding of serum 2 to linear peptides of protein X5 of SARS-CoV Urbani” value came to 0.6, the “Binding of serum 2 to looped/cyclic peptides of protein X5 of SARS-CoV Urbani” value was found to be 0.7, the “Binding of serum 6 to linear peptides of protein X5 of SARS-CoV Urbani” value came out at 0.7 and the “Binding of serum 6 to looped/cyclic peptides of protein X5 of SARS-CoV Urbani” value stood at 0.3. Further, in experiment [1], the “Binding of serum 37 to linear peptides of protein X5 of SARS-CoV Urbani” value is 0.7, the “Binding of serum 37 to looped/cyclic peptides of protein X5 of SARS-CoV Urbani” value was found to be 0.4, the “Binding of serum 62 to linear peptides of protein X5 of SARS-CoV Urbani” value was 0.7 and the “Binding of serum 62 to looped/cyclic peptides of protein X5 of SARS-CoV Urbani” value worked out at 0.3. For the same sequence, in experiment [1], the “Binding of serum London to linear peptides of protein X5 of SARS-CoV Urbani” value amounted to 0.6, the “Binding of serum London to looped/cyclic peptides of protein X5 of SARS-CoV Urbani” value amounted to 0.1, the “Binding of serum SARS-green to linear peptides of protein X5 of SARS-CoV Urbani” value was 0.6 and the “Binding of serum SARS-green to looped/cyclic peptides of protein X5 of SARS-CoV Urbani” value worked out at 0.8. In experiment [1], the “Binding of serum SARS-yellow to linear peptides of protein X5 of SARS-CoV Urbani” value turned out to be 0.1 and the “Binding of serum SARS-yellow to looped/cyclic peptides of protein X5 of SARS-CoV Urbani” value is 0.3. In experiment [2], the “Rabbit serum linear peptides” value was 0.6 and the “Rabbit serum looped peptides” value turned out to be 0.0. For the same sequence, in experiment [3], the “Binding of Control Serum Blood-Bank to Looped peptides” value is 0.3, the “Binding of Control serum Blood-bank to linear peptides” value is recorded as 0.6, the “Binding of Control serum LUMC to linear peptides” value came out at 0.4 and the “Binding of Control serum LUMC to looped peptides” value was found to be 0.2.

Take GKVLPFHRWHTMVQT: in experiment [1], the “Binding of serum 1a to linear peptides of protein X5 of SARS-CoV Urbani” value is 0.8, the “Binding of serum 1a to looped/cyclic peptides of protein X5 of SARS-CoV Urbani” value came out at 0.8, the “Binding of serum 1b to linear peptides of protein X5 of SARS-CoV Urbani” value turned out to be 0.0 and the “Binding of serum 1b to looped/cyclic peptides of protein X5 of SARS-CoV Urbani” value is reported as 0.5. Also, in experiment [1], the “Binding of serum 2 to linear peptides of protein X5 of SARS-CoV Urbani” value was 0.6, the “Binding of serum 2 to looped/cyclic peptides of protein X5 of SARS-CoV Urbani” value was found to be 0.6, the “Binding of serum 6 to linear peptides of protein X5 of SARS-CoV Urbani” value turned out to be 0.3 and the “Binding of serum 6 to looped/cyclic peptides of protein X5 of SARS-CoV Urbani” value stood at 0.4. Besides, in experiment [1], the “Binding of serum 37 to linear peptides of protein X5 of SARS-CoV Urbani” value came to 0.5, the “Binding of serum 37 to looped/cyclic peptides of protein X5 of SARS-CoV Urbani” value was 0.6, the “Binding of serum 62 to linear peptides of protein X5 of SARS-CoV Urbani” value is reported as 0.8 and the “Binding of serum 62 to looped/cyclic peptides of protein X5 of SARS-CoV Urbani” value came out at 0.5. Also, in experiment [1], the “Binding of serum London to linear peptides of protein X5 of SARS-CoV Urbani” value came out at 0.8, the “Binding of serum London to looped/cyclic peptides of protein X5 of SARS-CoV Urbani” value was 0.3, the “Binding of serum SARS-green to linear peptides of protein X5 of SARS-CoV Urbani” value stood at 0.3 and the “Binding of serum SARS-green to looped/cyclic peptides of protein X5 of SARS-CoV Urbani” value came to 0.5. Also, in experiment [1], the “Binding of serum SARS-yellow to linear peptides of protein X5 of SARS-CoV Urbani” value worked out at 0.1 and the “Binding of serum SARS-yellow to looped/cyclic peptides of protein X5 of SARS-CoV Urbani” value is 0.4. For the same sequence, in experiment [2], the “Rabbit serum linear peptides” value worked out at 0.0 and the “Rabbit serum looped peptides” value is given as 0.3. In addition, in experiment [3], the “Binding of Control Serum Blood-Bank to Looped peptides” value is listed as 0.5, the “Binding of Control serum Blood-bank to linear peptides” value came out at 0.6, the “Binding of Control serum LUMC to linear peptides” value is 0.3 and the “Binding of Control serum LUMC to looped peptides” value was 0.5.

Take GMEAQFLYLYALIYF: in experiment [1], the “Binding of serum 1a to linear peptides of protein X1 of SARS-CoV Urbani” value was 0.8, the “Binding of serum 1a to looped/cyclic peptide (PEPSCAN-ELISA)” value is reported as 0.6, the “Binding of serum 1b to linear peptides of protein X1 of SARS-CoV Urbani” value stood at 0.6 and the “Binding of serum 1b to looped/cyclic peptide (PEPSCAN-ELISA)” value amounted to 0.4. Moreover, in experiment [1], the “Binding of serum 2 to linear peptides of protein X1 of SARS-CoV Urbani” value amounted to 0.6, the “Binding of serum 2 to looped/cyclic peptide (PEPSCAN-ELISA)” value was determined as 0.5, the “Binding of serum 6 to linear peptides of protein X1 of SARS-CoV Urbani” value is recorded as 0.5 and the “Binding of serum 6 to looped/cyclic peptide (PEPSCAN-ELISA)” value turned out to be 0.3. In addition, in experiment [1], the “Binding of serum 37 to linear peptides of protein X1 of SARS-CoV Urbani” value is on record as 0.5, the “Binding of serum 37 to looped/cyclic peptide (PEPSCAN-ELISA)” value was found to be 0.4, the “Binding of serum 62 to linear peptides of protein X1 of SARS-CoV Urbani” value stood at 0.4 and the “Binding of serum 62 to looped/cyclic peptide (PEPSCAN-ELISA)” value came out at 0.5. In addition, in experiment [1], the “Binding of serum London to linear peptides of protein X1 of SARS-CoV Urbani” value was 0.2, the “Binding of serum London to looped/cyclic peptide (PEPSCAN-ELISA)” value came out at 0.2, the “Binding of serum SARS-green to linear peptides of protein X1 of SARS-CoV Urbani” value was 0.1 and the “Binding of serum SARS-green to looped/cyclic peptide (PEPSCAN-ELISA)” value stood at 0.3. In experiment [1], the “Binding of serum SARS-yellow to linear peptides of protein X1 of SARS-CoV Urbani” value amounted to 0.3 and the “Binding of serum SARS-yellow to looped/cyclic peptide (PEPSCAN-ELISA)” value was found to be 0.4. In experiment [2], the “Binding of a rabbit serum to linear peptides” value is 0.1 and the “Binding of a rabbit serum to looped peptides” value is reported as 0.6. Besides, in experiment [3], the “Binding of Control Serum Blood-Bank to Looped peptides” value came out at 0.5, the “Binding of Control serum Blood-bank to linear peptides” value was determined as 0.4, the “Binding of Control serum LUMC to linear peptides” value is reported as 0.6 and the “Binding of Control serum LUMC to looped peptides” value amounted to 0.8.

On to GTIVTRPLMESELVI, for which, in experiment [1], the “Binding of serum 1a to linear peptides of protein M of SARS-CoV Urbani” value is given as 0.8, the “Binding of serum 1b to linear peptides of protein M of SARS-CoV Urbani” value amounted to 0.7, the “Binding of serum 2 to linear peptides of protein M of SARS-CoV Urbani” value turned out to be 0.7 and the “Binding of serum 6 to linear peptides of protein M of SARS-CoV Urbani” value worked out at 0.5. Moreover, in experiment [1], the “Binding of serum 37 to linear peptides of protein M of SARS-CoV Urbani” value is 0.6, the “Binding of serum 62 to linear peptides of protein M of SARS-CoV Urbani” value is reported as 0.7, the “Binding of serum London to linear peptides of protein M of SARS-CoV Urbani” value was 0.3 and the “Binding of serum SARS-green to linear peptides of protein M of SARS-CoV Urbani” value turned out to be 0.7. In experiment [1], the “Binding of serum SARS-yellow to linear peptides of protein M of SARS-CoV Urbani” value is 0.2; the “Recognition of the peptide by sera of SARS-CoV infected individuals, and form (linear, looped/cyclic) in which it is recognized” value is given as “recognized in looped/cyclic form”. In addition, in experiment [2], the “Rabbit serum linear peptides” value is 0.1 and the “Rabbit serum looped peptides” value is listed as 0.5. In experiment [3], the “Binding of Control Serum Blood-Bank to Looped peptides of the protein M of SARS-CoV Urbani” value is 0.8, the “Binding of Control serum Blood-bank to linear peptides of the protein M of SARS-CoV Urbani” value is 0.7, the “Binding of Control serum LUMC to linear peptides of the protein M of SARS-CoV Urbani” value turned out to be 0.6 and the “Binding of Control serum LUMC to looped peptides of the protein M of SARS-CoV Urbani” value turned out to be 1.0.
